Source: US9073940B2, “Tricyclic pyrazol amine derivatives” (MERCK SERONO SA, priority 2009, dated 2015)

Test system: 4 PI3K isoforms (Human recombinant GST-PI3K)
Assay: PI3K scintillation proximity assay, best IC50 obtained with the four isoforms (alpha, beta, delta, gamma)
Type: biochemical
Settings: best IC50 obtained with the four isoforms of PI3K; read-out: Best potency measured on the 4 PI3K isoforms

IC50	SMILES
13 nM	COC1CCN(CCN2CCC[C@H](n3nc(C(=O)N4CCOCC4)c4c3-c3ccc(F)cc3S(=O)(=O)C4)C2)CC1 (stereo in doubt) [Example 474, 7-fluoro-1-{1-[2-(4-methoxypiperidin-1-yl)ethyl]piperidin-3-yl}-3-(morpholin-4-ylcarbonyl)-1,4-dihydrothiochromeno[4,3-c]pyrazole 5,5-dioxide]
1730 nM	COc1cccc2c1S(=O)(=O)Cc1c(C(=O)N3CCOCC3)nn(C)c1-2 [Example 2, 6-methoxy-1-methyl-3-(morpholin-4-ylcarbonyl)-1,4-dihydrothiochromeno[4,3-c]pyrazole 5,5-dioxide]
2880 nM	O=C(c1n[nH]c2c1CS(=O)(=O)c1ccccc1-2)N1CCOCC1 [Example 3, 3-(morpholin-4-ylcarbonyl)-2,4-dihydrothiochromeno[4,3-c]pyrazole 5,5-dioxide]
422 nM	COc1ccc2c(c1)S(=O)(=O)Cc1c(C(=O)N3CCOCC3)nn(C)c1-2 [Example 4, 7-methoxy-1-methyl-3-(morpholin-4-ylcarbonyl)-1,4-dihydrothiochromeno[4,3-c]pyrazole 5,5-dioxide]
926 nM	Cc1cccc(-n2nc(C(=O)N3CCOCC3)c3c2-c2ccccc2S(=O)(=O)C3)c1 [Example 6, 1-(3-methylphenyl)-3-(morpholin-4-ylcarbonyl)-1,4-dihydrothiochromeno[4,3-c]pyrazole 5,5-dioxide]
4200 nM	Cc1ccc(F)cc1-n1nc(C(=O)N2CCOCC2)c2c1-c1ccccc1S(=O)(=O)C2 [Example 8, 1-(5-fluoro-2-methylphenyl)-3-(morpholin-4-ylcarbonyl)-1,4-dihydrothiochromeno[4,3-c]pyrazole 5,5-dioxide]
1320 nM	COc1cccc(-n2nc(C(=O)N3CCOCC3)c3c2-c2ccccc2S(=O)(=O)C3)c1 [Example 9, 1-(3-methoxyphenyl)-3-(morpholin-4-ylcarbonyl)-1,4-dihydrothiochromeno[4,3-c]pyrazole 5,5-dioxide]
1600 nM	O=C(c1nn(-c2ccccn2)c2c1CS(=O)(=O)c1ccccc1-2)N1CCOCC1 [Example 11, 3-(morpholin-4-ylcarbonyl)-1-pyridin-2-yl-1,4-dihydrothiochromeno[4,3-c]pyrazole 5,5-dioxide]
687 nM	Cn1nc(C(=O)N2CCOCC2)c2c1-c1cccc(F)c1S(=O)(=O)C2 [Example 14, 6-fluoro-1-methyl-3-(morpholin-4-ylcarbonyl)-1,4-dihydrothiochromeno[4,3-c]pyrazole 5,5-dioxide]
4020 nM	O=C(c1nn(-c2ccccc2Cl)c2c1CS(=O)(=O)c1ccccc1-2)N1CCOCC1 [Example 22, 1-(2-chlorophenyl)-3-(morpholin-4-ylcarbonyl)-1,4-dihydrothiochromeno[4,3-c]pyrazole 5,5-dioxide]
670 nM	O=C(c1nn(-c2ccc3c(c2)OCCO3)c2c1CS(=O)(=O)c1ccccc1-2)N1CCOCC1 [Example 23, 1-(2,3-dihydro-1,4-benzodioxin-6-yl)-3-(morpholin-4-ylcarbonyl)-1,4-dihydrothiochromeno[4,3-c]pyrazole 5,5-dioxide]
616 nM	O=C(c1nn(-c2cccc(Br)c2)c2c1CS(=O)(=O)c1ccccc1-2)N1CCOCC1 [Example 25, 1-(3-bromophenyl)-3-(morpholin-4-ylcarbonyl)-1,4-dihydrothiochromeno[4,3-c]pyrazole 5,5-dioxide]
373 nM	O=C(c1nn(-c2ccc(F)cc2)c2c1CS(=O)(=O)c1ccccc1-2)N1CCOCC1 [Example 28, 1-(4-fluorophenyl)-3-(morpholin-4-ylcarbonyl)-1,4-dihydrothiochromeno[4,3-c]pyrazole 5,5-dioxide]
895 nM	O=C(c1nn(-c2ccc(Cl)cc2)c2c1CS(=O)(=O)c1ccccc1-2)N1CCOCC1 [Example 29, 1-(4-chlorophenyl)-3-(morpholin-4-ylcarbonyl)-1,4-dihydrothiochromeno[4,3-c]pyrazole 5,5-dioxide]
1470 nM	CC(C)c1ccc(-n2nc(C(=O)N3CCOCC3)c3c2-c2ccccc2S(=O)(=O)C3)cc1 [Example 30, 1-(4-isopropylphenyl)-3-(morpholin-4-ylcarbonyl)-1,4-dihydrothiochromeno[4,3-c]pyrazole 5,5-dioxide]
4040 nM	Cc1ccncc1-n1nc(C(=O)N2CCOCC2)c2c1-c1ccccc1S(=O)(=O)C2 [Example 31, 1-(4-methylpyridin-3-yl)-3-(morpholin-4-ylcarbonyl)-1,4-dihydrothiochromeno[4,3-c]pyrazole 5,5-dioxide]
223 nM	O=C(c1nn(C2CCOCC2)c2c1CS(=O)(=O)c1ccccc1-2)N1CCOCC1 [Example 32, 3-(morpholin-4-ylcarbonyl)-1-(tetrahydro-2H-pyran-4-yl)-1,4-dihydrothiochromeno[4,3-c]pyrazole 5,5-dioxide]
1190 nM	O=C(c1nn(Cc2ccccc2)c2c1CS(=O)(=O)c1ccccc1-2)N1CCOCC1 [Example 40, 1-benzyl-3-(morpholin-4-ylcarbonyl)-1,4-dihydrothiochromeno[4,3-c]pyrazole 5,5-dioxide]

The remaining lines, values behind:

SMILES	IC50
COc1ccc2c(c1)S(=O)(=O)Cc1c(C(=O)N3CCOCC3)nn(-c3ccccc3)c1-2 [Example 5, 7-methoxy-3-(morpholin-4-ylcarbonyl)-1-phenyl-1,4-dihydrothiochromeno[4,3-c]pyrazole 5,5-dioxide]	349 nM
COc1ccc(-n2nc(C(=O)N3CCOCC3)c3c2-c2ccccc2S(=O)(=O)C3)cc1 [Example 10, 1-(4-methoxyphenyl)-3-(morpholin-4-ylcarbonyl)-1,4-dihydrothiochromeno[4,3-c]pyrazole 5,5-dioxide]	749 nM
Cn1nc(C(=O)N2CCOCC2)c2c1-c1cc(F)ccc1S(=O)(=O)C2 [Example 16, 8-fluoro-1-methyl-3-(morpholin-4-ylcarbonyl)-1,4-dihydrothiochromeno[4,3-c]pyrazole 5,5-dioxide]	2220 nM
O=C(c1nn(-c2ccccc2)c2c1CS(=O)(=O)c1ccc(F)cc1-2)N1CCOCC1 [Example 17, 8-fluoro-3-(morpholin-4-ylcarbonyl)-1-phenyl-1,4-dihydrothiochromeno[4,3-c]pyrazole 5,5-dioxide]	987 nM
O=C(c1nn(-c2ccccc2)c2c1CS(=O)(=O)c1c(Br)cccc1-2)N1CCOCC1 [Example 18]	494 nM
Cc1ccccc1-n1nc(C(=O)N2CCOCC2)c2c1-c1ccccc1S(=O)(=O)C2 [Example 19, 1-(2-methylphenyl)-3-(morpholin-4-ylcarbonyl)-1,4-dihydrothiochromeno[4,3-c]pyrazole 5,5-dioxide]	2280 nM
O=C(c1nn(-c2ccccc2Br)c2c1CS(=O)(=O)c1ccccc1-2)N1CCOCC1 [Example 20, 1-(2-bromophenyl)-3-(morpholin-4-ylcarbonyl)-1,4-dihydrothiochromeno[4,3-c]pyrazole 5,5-dioxide]	5500 nM
O=C(c1nn(-c2ccccc2F)c2c1CS(=O)(=O)c1ccccc1-2)N1CCOCC1 [Example 21, 1-(2-fluorophenyl)-3-(morpholin-4-ylcarbonyl)-1,4-dihydrothiochromeno[4,3-c]pyrazole 5,5-dioxide]	2000 nM
Cc1nc2ccc(-n3nc(C(=O)N4CCOCC4)c4c3-c3ccccc3S(=O)(=O)C4)cc2s1 [Example 24, 1-(2-methyl-1,3-benzothiazol-6-yl)-3-(morpholin-4-ylcarbonyl)-1,4-dihydrothiochromeno[4,3-c]pyrazole 5,5-dioxide]	662 nM
O=C(c1nn(-c2cccc(Cl)c2)c2c1CS(=O)(=O)c1ccccc1-2)N1CCOCC1 [Example 26, 1-(3-chlorophenyl)-3-(morpholin-4-ylcarbonyl)-1,4-dihydrothiochromeno[4,3-c]pyrazole 5,5-dioxide]	440 nM
O=C(c1nn(-c2ccc(Br)cc2)c2c1CS(=O)(=O)c1ccccc1-2)N1CCOCC1 [Example 27, 1-(4-bromophenyl)-3-(morpholin-4-ylcarbonyl)-1,4-dihydrothiochromeno[4,3-c]pyrazole 5,5-dioxide]	1120 nM
Cn1nc(C(=O)N2CCOCC2)c2c1-c1cc([N+](=O)[O-])ccc1S(=O)(=O)C2 [Example 35, 1-methyl-3-(morpholin-4-ylcarbonyl)-8-nitro-1,4-dihydrothiochromeno[4,3-c]pyrazole 5,5-dioxide]	2770 nM
O=C(c1nn(-c2ccccc2)c2c1CS(=O)(=O)c1ccc([N+](=O)[O-])cc1-2)N1CCOCC1 [Example 36, 3-(morpholin-4-ylcarbonyl)-8-nitro-1-phenyl-1,4-dihydrothiochromeno[4,3-c]pyrazole 5,5-dioxide]	1830 nM
O=C(c1nn(CCc2ccccc2)c2c1CS(=O)(=O)c1ccccc1-2)N1CCOCC1 [Example 41, 3-(morpholin-4-ylcarbonyl)-1-(2-phenylethyl)-1,4-dihydrothiochromeno[4,3-c]pyrazole 5,5-dioxide]	1440 nM
CN(C)CCn1nc(C(=O)N2CCOCC2)c2c1-c1ccccc1S(=O)(=O)C2 [Example 42, N,N-dimethyl-2-[3-(morpholin-4-ylcarbonyl)-5,5-dioxidothiochromeno[4,3-c]pyrazol-1(4H)-yl]ethanamine]	1500 nM
COCCCn1nc(C(=O)N2CCOCC2)c2c1-c1ccccc1S(=O)(=O)C2 [Example 44, 1-(3-methoxypropyl)-3-(morpholin-4-ylcarbonyl)-1,4-dihydrothiochromeno[4,3-c]pyrazole 5,5-dioxide]	907 nM
O=C(c1nn(CC2CCCO2)c2c1CS(=O)(=O)c1ccccc1-2)N1CCOCC1 (stereo not shown) [Example 45, 3-(morpholin-4-ylcarbonyl)-1-(tetrahydrofuran-2-ylmethyl)-1,4-dihydrothiochromeno[4,3-c]pyrazole 5,5-dioxide]	1560 nM
O=C(c1nn(Cc2ccccn2)c2c1CS(=O)(=O)c1ccccc1-2)N1CCOCC1 [Example 47, 3-(morpholin-4-ylcarbonyl)-1-(pyridin-2-ylmethyl)-1,4-dihydrothiochromeno[4,3-c]pyrazole 5,5-dioxide]	3960 nM
CC(C)Cn1nc(C(=O)N2CCOCC2)c2c1-c1ccccc1S(=O)(=O)C2 [Example 50, 1-isobutyl-3-(morpholin-4-ylcarbonyl)-1,4-dihydrothiochromeno[4,3-c]pyrazole 5,5-dioxide]	960 nM
